In the kinase profiling compilation of Christmann-Franck et al. (2016):

Columns and labels:
Assay in all cases: radiometric filter-binding kinase assay
NUAK1 (human) = NUAK1 (human) (UniProt O60285)
MAPK9 (human) = MAPK9 (human) (UniProt P45984)
INSR (human) = INSR (human) (UniProt P06213)
PRKCA (human) = PRKCA (human) (UniProt P17252)
IRAK4 (human) = IRAK4 (human) (UniProt Q9NWZ3)
MAP2K6 (human) = MAP2K6 (human) (UniProt P52564)
MARK4 (human) = MARK4 (human) (UniProt Q96L34)
MAP3K1 (human) = MAP3K1 (human) (UniProt Q13233)
MAP3K7 TAB1 (human) = MAP3K7 TAB1 (human) (UniProt Q15750+O43318)
Sequence of MAP3K7 TAB1 (human) (O43318 whole entry, looked up): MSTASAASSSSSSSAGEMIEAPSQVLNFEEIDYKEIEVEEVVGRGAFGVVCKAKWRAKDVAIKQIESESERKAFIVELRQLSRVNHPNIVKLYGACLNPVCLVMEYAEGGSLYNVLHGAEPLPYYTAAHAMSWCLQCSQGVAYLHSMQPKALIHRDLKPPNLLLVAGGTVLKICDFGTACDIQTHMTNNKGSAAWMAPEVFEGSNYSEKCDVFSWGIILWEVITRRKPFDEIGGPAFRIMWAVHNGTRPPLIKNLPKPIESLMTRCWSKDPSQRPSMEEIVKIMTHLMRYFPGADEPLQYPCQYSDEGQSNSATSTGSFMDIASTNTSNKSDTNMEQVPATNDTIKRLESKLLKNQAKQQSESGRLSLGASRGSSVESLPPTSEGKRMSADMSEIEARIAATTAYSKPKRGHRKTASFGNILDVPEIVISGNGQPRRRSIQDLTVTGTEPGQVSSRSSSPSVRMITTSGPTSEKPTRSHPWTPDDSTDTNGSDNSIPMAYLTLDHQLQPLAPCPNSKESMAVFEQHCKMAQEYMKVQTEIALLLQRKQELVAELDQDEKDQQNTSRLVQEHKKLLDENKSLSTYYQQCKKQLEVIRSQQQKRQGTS
Sequence of MAP3K7 TAB1 (human) (Q15750 whole entry, looked up): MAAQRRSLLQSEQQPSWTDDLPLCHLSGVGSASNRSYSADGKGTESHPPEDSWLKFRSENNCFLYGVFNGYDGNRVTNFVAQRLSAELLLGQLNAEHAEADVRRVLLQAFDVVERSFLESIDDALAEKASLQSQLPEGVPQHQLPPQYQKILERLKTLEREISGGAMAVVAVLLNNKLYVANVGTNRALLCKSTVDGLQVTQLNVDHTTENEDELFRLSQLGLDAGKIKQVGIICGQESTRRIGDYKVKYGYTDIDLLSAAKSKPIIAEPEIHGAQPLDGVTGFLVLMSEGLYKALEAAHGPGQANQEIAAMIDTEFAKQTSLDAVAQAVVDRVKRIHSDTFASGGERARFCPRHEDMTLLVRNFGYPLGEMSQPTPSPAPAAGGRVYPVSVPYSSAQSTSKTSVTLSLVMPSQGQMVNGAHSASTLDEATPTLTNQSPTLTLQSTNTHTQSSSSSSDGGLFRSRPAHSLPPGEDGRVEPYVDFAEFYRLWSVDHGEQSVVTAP

MAPKAPK2 (human) = MAPKAPK2 (human) (UniProt P49137)
PAK6 (human) = PAK6 (human) (UniProt Q9NQU5)
Sequence of PAK6 (human) (Q9NQU5 whole entry, looked up): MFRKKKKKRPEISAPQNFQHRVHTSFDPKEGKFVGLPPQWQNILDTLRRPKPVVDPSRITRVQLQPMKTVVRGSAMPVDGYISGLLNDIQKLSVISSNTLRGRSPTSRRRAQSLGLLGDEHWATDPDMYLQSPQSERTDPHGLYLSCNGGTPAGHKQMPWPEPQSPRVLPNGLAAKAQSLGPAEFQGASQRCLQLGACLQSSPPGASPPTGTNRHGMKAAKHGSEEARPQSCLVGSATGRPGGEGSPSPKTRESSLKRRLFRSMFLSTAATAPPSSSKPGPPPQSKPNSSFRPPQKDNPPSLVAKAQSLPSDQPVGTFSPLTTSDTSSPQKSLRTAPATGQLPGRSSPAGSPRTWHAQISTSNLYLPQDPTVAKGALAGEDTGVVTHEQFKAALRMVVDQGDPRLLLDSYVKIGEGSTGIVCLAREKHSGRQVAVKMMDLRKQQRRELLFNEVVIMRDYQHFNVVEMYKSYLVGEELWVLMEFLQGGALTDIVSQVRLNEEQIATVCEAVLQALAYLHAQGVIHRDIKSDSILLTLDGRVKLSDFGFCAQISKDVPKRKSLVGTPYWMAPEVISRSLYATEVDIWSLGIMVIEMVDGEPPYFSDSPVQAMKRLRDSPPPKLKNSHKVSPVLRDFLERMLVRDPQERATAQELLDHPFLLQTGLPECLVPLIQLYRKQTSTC

MAP2K2 (human) = MAP2K2 (human) (UniProt P36507)
Sequence of MAP2K2 (human) (P36507 whole entry, looked up): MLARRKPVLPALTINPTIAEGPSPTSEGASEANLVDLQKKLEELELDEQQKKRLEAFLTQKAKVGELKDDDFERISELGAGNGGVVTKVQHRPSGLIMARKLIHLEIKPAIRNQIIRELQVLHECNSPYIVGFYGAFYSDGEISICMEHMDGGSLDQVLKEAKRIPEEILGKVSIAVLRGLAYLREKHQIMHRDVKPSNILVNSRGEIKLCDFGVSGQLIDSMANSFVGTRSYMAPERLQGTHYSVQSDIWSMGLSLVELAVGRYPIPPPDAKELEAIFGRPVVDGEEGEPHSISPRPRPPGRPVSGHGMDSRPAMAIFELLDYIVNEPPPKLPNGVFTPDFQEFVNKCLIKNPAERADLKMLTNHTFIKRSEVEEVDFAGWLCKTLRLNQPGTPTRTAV

EPHA2 (human) = EPHA2 (human) (UniProt P29317)
MST4 (human) = MST4 (human) (UniProt Q9P289)
MAP3K9 (human) = MAP3K9 (human) (UniProt P80192)
MAP3K11 (human) = MAP3K11 (human) (UniProt Q16584)
MARK1 (human) = MARK1 (human) (UniProt Q9P0L2)
AURKA (human) = AURKA (human) (UniProt O14965)
BRSK1 (human) = BRSK1 (human) (UniProt Q8TDC3)
NTRK1 (human) = NTRK1 (human) (UniProt P04629)
GSK3B (human) = GSK3B (human) (UniProt P49841)
MARK2 (human) = MARK2 (human) (UniProt Q7KZI7)
[1] = test system: AKT1 (human), P31749 [S473D]
EPHB3 (human) = EPHB3 (human) (UniProt P54753)
ERBB4 (human) = ERBB4 (human) (UniProt Q15303)
PKN2 (human) = PKN2 (human) (UniProt Q16513)
MAPK12 (human) = MAPK12 (human) (UniProt P53778)
EEF2K (human) = EEF2K (human) (UniProt O00418)
Sequence of EEF2K (human) (O00418 whole entry, looked up): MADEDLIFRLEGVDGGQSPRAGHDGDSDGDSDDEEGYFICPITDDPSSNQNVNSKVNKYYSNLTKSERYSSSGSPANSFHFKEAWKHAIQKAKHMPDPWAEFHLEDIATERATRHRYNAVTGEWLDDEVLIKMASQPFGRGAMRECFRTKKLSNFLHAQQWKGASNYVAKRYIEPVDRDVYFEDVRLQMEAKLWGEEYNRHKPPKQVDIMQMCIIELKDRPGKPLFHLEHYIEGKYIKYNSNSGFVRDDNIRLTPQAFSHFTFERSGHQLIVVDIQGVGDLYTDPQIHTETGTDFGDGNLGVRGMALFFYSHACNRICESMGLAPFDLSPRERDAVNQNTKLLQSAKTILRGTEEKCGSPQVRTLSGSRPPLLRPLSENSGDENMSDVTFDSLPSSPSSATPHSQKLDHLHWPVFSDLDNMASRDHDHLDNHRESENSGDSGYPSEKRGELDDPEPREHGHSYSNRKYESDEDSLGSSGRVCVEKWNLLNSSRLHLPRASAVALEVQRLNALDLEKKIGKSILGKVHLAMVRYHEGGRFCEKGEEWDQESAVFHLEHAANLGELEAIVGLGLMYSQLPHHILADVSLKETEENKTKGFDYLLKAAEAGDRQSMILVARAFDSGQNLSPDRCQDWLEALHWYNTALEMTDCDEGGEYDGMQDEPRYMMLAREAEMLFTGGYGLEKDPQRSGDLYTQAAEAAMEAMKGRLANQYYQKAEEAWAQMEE

[2] = target: STK11 CAB39 STRADA (human) (UniProt Q9Y376+Q7RTN6+Q15831)
PIM1 (human) = PIM1 (human) (UniProt P11309)
DYRK2 (human) = DYRK2 (human) (UniProt Q92630)
MELK (human) = MELK (human) (UniProt Q14680)
PAK4 (human) = PAK4 (human) (UniProt O96013)
Sequence of PAK4 (human) (O96013 whole entry, looked up): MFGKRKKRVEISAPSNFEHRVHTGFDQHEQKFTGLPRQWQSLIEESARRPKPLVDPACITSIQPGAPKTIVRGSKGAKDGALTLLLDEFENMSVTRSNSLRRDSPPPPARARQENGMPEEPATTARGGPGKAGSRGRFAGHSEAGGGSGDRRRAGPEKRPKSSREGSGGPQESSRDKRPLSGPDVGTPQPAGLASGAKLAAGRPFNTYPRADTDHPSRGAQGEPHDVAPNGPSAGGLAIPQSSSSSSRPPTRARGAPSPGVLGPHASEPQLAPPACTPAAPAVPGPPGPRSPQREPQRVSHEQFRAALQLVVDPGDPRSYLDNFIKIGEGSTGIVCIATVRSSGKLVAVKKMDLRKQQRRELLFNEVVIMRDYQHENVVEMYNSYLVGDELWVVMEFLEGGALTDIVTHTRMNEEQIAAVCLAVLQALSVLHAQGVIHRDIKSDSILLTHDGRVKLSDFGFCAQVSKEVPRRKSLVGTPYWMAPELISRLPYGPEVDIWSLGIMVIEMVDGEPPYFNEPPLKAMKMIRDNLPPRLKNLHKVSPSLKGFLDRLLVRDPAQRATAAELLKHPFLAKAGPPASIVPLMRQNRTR

PRKCZ (human) = PRKCZ (human) (UniProt Q05513)
MAP3K5 (human) = MAP3K5 (human) (UniProt Q99683)
HIPK3 (human) = HIPK3 (human) (UniProt Q9H422)

Sequence of MARK4 (human) (Q96L34 whole entry, looked up): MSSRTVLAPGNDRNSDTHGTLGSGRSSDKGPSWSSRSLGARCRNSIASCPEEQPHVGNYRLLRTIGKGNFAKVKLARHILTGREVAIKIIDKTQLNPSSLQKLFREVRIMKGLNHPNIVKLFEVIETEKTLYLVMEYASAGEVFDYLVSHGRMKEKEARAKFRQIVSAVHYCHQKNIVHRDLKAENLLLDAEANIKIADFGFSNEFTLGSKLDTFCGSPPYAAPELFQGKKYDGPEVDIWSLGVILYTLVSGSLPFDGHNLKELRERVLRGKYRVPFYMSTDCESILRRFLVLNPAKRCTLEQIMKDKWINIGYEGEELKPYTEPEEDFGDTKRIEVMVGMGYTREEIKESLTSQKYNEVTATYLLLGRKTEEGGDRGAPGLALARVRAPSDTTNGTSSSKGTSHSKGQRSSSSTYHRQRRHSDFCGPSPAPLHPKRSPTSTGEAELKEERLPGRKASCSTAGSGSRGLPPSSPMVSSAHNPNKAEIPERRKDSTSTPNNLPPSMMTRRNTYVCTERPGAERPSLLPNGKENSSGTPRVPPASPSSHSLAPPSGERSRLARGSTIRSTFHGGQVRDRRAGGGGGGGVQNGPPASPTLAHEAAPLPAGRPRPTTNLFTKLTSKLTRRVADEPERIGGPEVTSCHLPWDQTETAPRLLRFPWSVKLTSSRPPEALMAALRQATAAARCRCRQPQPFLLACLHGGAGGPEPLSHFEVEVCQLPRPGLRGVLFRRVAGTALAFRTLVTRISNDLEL

## CCn1c(-c2nonc2N)nc2cncc(CNC3CCNCC3)c21
NUAK1 (human); compound 0.1 µM
  residual activity: 101%
NUAK1 (human); compound 1.0 µM
  residual activity: 91%
NUAK1 (human); compound 10.0 µM
  residual activity: 59%
MAPK9 (human); compound 0.1 µM
  residual activity: 109%
MAPK9 (human); compound 1.0 µM
  residual activity: 103%
MAPK9 (human); compound 10.0 µM
  residual activity: 95%
INSR (human); compound 0.1 µM
  residual activity: 99%
INSR (human); compound 1.0 µM
  residual activity: 99%
INSR (human); compound 10.0 µM
  residual activity: 99%
PRKCA (human); compound 0.1 µM
  residual activity: 84%
PRKCA (human); compound 1.0 µM
  residual activity: 70%
PRKCA (human); compound 10.0 µM
  residual activity: 30%
IRAK4 (human); compound 0.1 µM
  residual activity: 99%
IRAK4 (human); compound 1.0 µM
  residual activity: 86%
IRAK4 (human); compound 10.0 µM
  residual activity: 87%
MAP2K6 (human); compound 0.1 µM
  residual activity: 89%
MAP2K6 (human); compound 1.0 µM
  residual activity: 90%
MAP2K6 (human); compound 10.0 µM
  residual activity: 96%
MARK4 (human); compound 0.1 µM
  residual activity: 91%
MARK4 (human); compound 1.0 µM
  residual activity: 103%
MARK4 (human); compound 10.0 µM
  residual activity: 81%
MAP3K1 (human); compound 0.1 µM
  residual activity: 94%
MAP3K1 (human); compound 1.0 µM
  residual activity: 93%
MAP3K1 (human); compound 10.0 µM
  residual activity: 112%
MAP3K7 TAB1 (human); compound 0.1 µM
  residual activity: 95%
MAP3K7 TAB1 (human); compound 1.0 µM
  residual activity: 94%
MAP3K7 TAB1 (human); compound 10.0 µM
  residual activity: 82%
MAPKAPK2 (human); compound 0.1 µM
  residual activity: 112%
MAPKAPK2 (human); compound 1.0 µM
  residual activity: 104%
MAPKAPK2 (human); compound 10.0 µM
  residual activity: 102%
PAK6 (human); compound 0.1 µM
  residual activity: 103%
PAK6 (human); compound 1.0 µM
  residual activity: 94%
PAK6 (human); compound 10.0 µM
  residual activity: 93%
MAP2K2 (human); compound 0.1 µM
  residual activity: 98%
EPHA2 (human); compound 0.1 µM
  residual activity: 119%
EPHA2 (human); compound 1.0 µM
  residual activity: 114%
EPHA2 (human); compound 10.0 µM
  residual activity: 103%
MST4 (human); compound 0.1 µM
  residual activity: 91%
MST4 (human); compound 1.0 µM
  residual activity: 81%
MST4 (human); compound 10.0 µM
  residual activity: 91%
MAP3K9 (human); compound 0.1 µM
  residual activity: 105%
MAP3K9 (human); compound 1.0 µM
  residual activity: 104%
MAP3K9 (human); compound 10.0 µM
  residual activity: 99%
MAP3K11 (human); compound 1.0 µM
  residual activity: 111%
MAP3K11 (human); compound 10.0 µM
  residual activity: 89%
MARK1 (human); compound 0.1 µM
  residual activity: 85%
MARK1 (human); compound 1.0 µM
  residual activity: 95%
MARK1 (human); compound 10.0 µM
  residual activity: 71%
AURKA (human); compound 0.1 µM
  residual activity: 91%
AURKA (human); compound 1.0 µM
  residual activity: 95%
AURKA (human); compound 10.0 µM
  residual activity: 103%
BRSK1 (human); compound 0.1 µM
  residual activity: 91%
BRSK1 (human); compound 1.0 µM
  residual activity: 81%
BRSK1 (human); compound 10.0 µM
  residual activity: 41%
NTRK1 (human); compound 0.1 µM
  residual activity: 104%
NTRK1 (human); compound 1.0 µM
  residual activity: 99%
NTRK1 (human); compound 10.0 µM
  residual activity: 97%
GSK3B (human); compound 0.1 µM
  residual activity: 87%
GSK3B (human); compound 1.0 µM
  residual activity: 66%
GSK3B (human); compound 10.0 µM
  residual activity: 25%
MARK2 (human); compound 0.1 µM
  residual activity: 99%
MARK2 (human); compound 1.0 µM
  residual activity: 92%
MARK2 (human); compound 10.0 µM
  residual activity: 63%
[1]; compound 0.1 µM
  residual activity: 48%
[1]; compound 1.0 µM
  residual activity: 16%
[1]; compound 10.0 µM
  residual activity: 4%
EPHB3 (human); compound 0.1 µM
  residual activity: 81%
EPHB3 (human); compound 1.0 µM
  residual activity: 99%
EPHB3 (human); compound 10.0 µM
  residual activity: 83%
ERBB4 (human); compound 0.1 µM
  residual activity: 112%
ERBB4 (human); compound 1.0 µM
  residual activity: 104%
PKN2 (human); compound 0.1 µM
  residual activity: 31%
PKN2 (human); compound 1.0 µM
  residual activity: 12%
PKN2 (human); compound 10.0 µM
  residual activity: 7%
MAPK12 (human); compound 0.1 µM
  residual activity: 119%
MAPK12 (human); compound 1.0 µM
  residual activity: 112%
MAPK12 (human); compound 10.0 µM
  residual activity: 109%
EEF2K (human); compound 0.1 µM
  residual activity: 118%
EEF2K (human); compound 10.0 µM
  residual activity: 117%
[2]; compound 0.1 µM
  residual activity: 108%
[2]; compound 10.0 µM
  residual activity: 57%
PIM1 (human); compound 0.1 µM
  residual activity: 94%
PIM1 (human); compound 1.0 µM
  residual activity: 35%
PIM1 (human); compound 10.0 µM
  residual activity: 7%
DYRK2 (human); compound 0.1 µM
  residual activity: 87%
DYRK2 (human); compound 1.0 µM
  residual activity: 89%
DYRK2 (human); compound 10.0 µM
  residual activity: 53%
MELK (human); compound 0.1 µM
  residual activity: 71%
MELK (human); compound 1.0 µM
  residual activity: 40%
MELK (human); compound 10.0 µM
  residual activity: 26%
PAK4 (human); compound 1.0 µM
  residual activity: 96%
PAK4 (human); compound 10.0 µM
  residual activity: 79%
PRKCZ (human); compound 0.1 µM
  residual activity: 94%
PRKCZ (human); compound 1.0 µM
  residual activity: 71%
PRKCZ (human); compound 10.0 µM
  residual activity: 25%
MAP3K5 (human); compound 0.1 µM
  residual activity: 100%
MAP3K5 (human); compound 1.0 µM
  residual activity: 97%
MAP3K5 (human); compound 10.0 µM
  residual activity: 97%
HIPK3 (human); compound 0.1 µM
  residual activity: 99%
HIPK3 (human); compound 1.0 µM
  residual activity: 95%
HIPK3 (human); compound 10.0 µM
  residual activity: 84%

## Cc1nc(-c2ccc(OCC(C)C)c(C#N)c2)sc1C(=O)O
NUAK1 (human); compound 1.0 µM
  residual activity: 95%
NUAK1 (human); compound 10.0 µM
  residual activity: 73%
MAPK9 (human); compound 1.0 µM
  residual activity: 90%
MAPK9 (human); compound 10.0 µM
  residual activity: 86%
INSR (human); compound 1.0 µM
  residual activity: 102%
INSR (human); compound 10.0 µM
  residual activity: 96%
PRKCA (human); compound 1.0 µM
  residual activity: 94%
PRKCA (human); compound 10.0 µM
  residual activity: 92%
IRAK4 (human); compound 1.0 µM
  residual activity: 90%
IRAK4 (human); compound 10.0 µM
  residual activity: 98%
MAP2K6 (human); compound 1.0 µM
  residual activity: 85%
MAP2K6 (human); compound 10.0 µM
  residual activity: 81%
MARK4 (human); compound 1.0 µM
  residual activity: 96%
MARK4 (human); compound 10.0 µM
  residual activity: 85%
MAP3K1 (human); compound 1.0 µM
  residual activity: 106%
MAP3K1 (human); compound 10.0 µM
  residual activity: 96%
MAP3K7 TAB1 (human); compound 1.0 µM
  residual activity: 88%
MAP3K7 TAB1 (human); compound 10.0 µM
  residual activity: 81%
MAPKAPK2 (human); compound 10.0 µM
  residual activity: 44%
PAK6 (human); compound 1.0 µM
  residual activity: 97%
PAK6 (human); compound 10.0 µM
  residual activity: 107%
MAP2K2 (human); compound 1.0 µM
  residual activity: 77%
MAP2K2 (human); compound 10.0 µM
  residual activity: 73%
EPHA2 (human); compound 1.0 µM
  residual activity: 104%
EPHA2 (human); compound 10.0 µM
  residual activity: 89%
MST4 (human); compound 1.0 µM
  residual activity: 94%
MST4 (human); compound 10.0 µM
  residual activity: 90%
MAP3K9 (human); compound 1.0 µM
  residual activity: 69%
MAP3K9 (human); compound 10.0 µM
  residual activity: 47%
MAP3K11 (human); compound 1.0 µM
  residual activity: 80%
MAP3K11 (human); compound 10.0 µM
  residual activity: 47%
MARK1 (human); compound 1.0 µM
  residual activity: 96%
MARK1 (human); compound 10.0 µM
  residual activity: 104%
AURKA (human); compound 10.0 µM
  residual activity: 94%
BRSK1 (human); compound 1.0 µM
  residual activity: 94%
BRSK1 (human); compound 10.0 µM
  residual activity: 91%
NTRK1 (human); compound 1.0 µM
  residual activity: 88%
GSK3B (human); compound 1.0 µM
  residual activity: 90%
GSK3B (human); compound 10.0 µM
  residual activity: 74%
MARK2 (human); compound 1.0 µM
  residual activity: 60%
MARK2 (human); compound 10.0 µM
  residual activity: 59%
[1]; compound 1.0 µM
  residual activity: 97%
[1]; compound 10.0 µM
  residual activity: 95%
EPHB3 (human); compound 10.0 µM
  residual activity: 83%
ERBB4 (human); compound 1.0 µM
  residual activity: 102%
ERBB4 (human); compound 10.0 µM
  residual activity: 103%
PKN2 (human); compound 1.0 µM
  residual activity: 120%
MAPK12 (human); compound 1.0 µM
  residual activity: 84%
MAPK12 (human); compound 10.0 µM
  residual activity: 96%
EEF2K (human); compound 1.0 µM
  residual activity: 102%
EEF2K (human); compound 10.0 µM
  residual activity: 95%
[2]; compound 1.0 µM
  residual activity: 86%
[2]; compound 10.0 µM
  residual activity: 85%
PIM1 (human); compound 1.0 µM
  residual activity: 83%
PIM1 (human); compound 10.0 µM
  residual activity: 66%
DYRK2 (human); compound 1.0 µM
  residual activity: 95%
DYRK2 (human); compound 10.0 µM
  residual activity: 83%
MELK (human); compound 1.0 µM
  residual activity: 84%
MELK (human); compound 10.0 µM
  residual activity: 87%
PAK4 (human); compound 1.0 µM
  residual activity: 85%
PAK4 (human); compound 10.0 µM
  residual activity: 67%
PRKCZ (human); compound 1.0 µM
  residual activity: 93%
PRKCZ (human); compound 10.0 µM
  residual activity: 96%
MAP3K5 (human); compound 10.0 µM
  residual activity: 127%
HIPK3 (human); compound 1.0 µM
  residual activity: 108%
HIPK3 (human); compound 10.0 µM
  residual activity: 119%
